Assay results taken from PMC12040169 (PLOS Biology, 2025).

Test: in vitro
Settings: human, hela cells, % viability

Going from `Nc1ncc(-c2ccc(C(=O)N3CCOCC3)cc2)nc1C(=O)NCc1ccc(O)cc1` [CBK149161] to `CC(=O)Nc1ccc(-c2ccc(COC3CCN(C(=O)c4ccc(Cl)c(Cl)c4)CC3)cc2)cc1` [CBK149215], the viability at 28.5 h, 10 µM falls from 109% to 89.3%.

Compared with `Cc1ccc(-c2oncc2C(=O)N2CCC(n3c(=O)[nH]c4ccccc43)CC2)cc1` [CBK149180], `Cc1cc(C(=O)N2CCC(n3c(=O)[nH]c4ccccc43)CC2)no1` [CBK149714] is lower in viability at 28.5 h, 10 µM: 106% for the first, 103% for the second.

Going from `CC(=O)Nc1ccc(-c2ccc(COC3CCN(C(=O)c4ccc(F)cc4F)CC3)cc2)cc1` [CBK149216] to `CC(=O)Nc1ccc(-c2ccc(COC3CCN(C(=O)Cc4ccc(Cl)cc4)CC3)cc2)cc1` [CBK149218], the viability at 28.5 h, 10 µM falls from 101% to 94.6%.

Going from `CC(=O)Nc1ccc(-c2ccc(COC3CCN(C(=O)Cc4ccc(C#N)cc4)CC3)cc2)cc1` [CBK149225] to `CC(=O)Nc1ccc(-c2cccc(COC3CCN(C(=O)Cc4ccc(C#N)cc4)CC3)c2)cc1` [CBK149495], the viability at 28.5 h, 10 µM rises from 91.7% to 101%.

Going from `COC(=O)c1ccc(-c2cc3ccccc3o2)nc1` [CBK149228T] to `CCOC(=O)c1ccnc(-c2cc3ccccc3o2)c1` [CBK149253], the viability at 28.5 h, 10 µM rises from 85.9% to 101%.

Going from `COC(=O)c1ccc(-c2ccsc2)nc1` [CBK149229] to `CCc1ccc(-c2ccc(C(=O)OC)cn2)cc1` [CBK149232], the viability at 28.5 h, 10 µM falls from 116% to 95.2%.

`CCOC(=O)c1cccnc1-c1cc2ccccc2o1` [CBK149237] and `CCOC(=O)c1cccnc1-c1ccc2[nH]ccc2c1` [CBK149238] are the same in viability at 28.5 h, 10 µM: 99.7% for the first, 99.7% for the second.

First: CCOC(=O)c1cccnc1-c1ccc(OC)c(OC)c1 [CBK149240]
Second: CCOC(=O)c1cccc(-c2ccc(OC)c(OC)c2)n1 [CBK149247]
The viability at 28.5 h, 10 µM of the first is lower: 94.2% for the first, 95.4% for the second.

Going from `CCOC(=O)c1cccc(-c2ccsc2)n1` [CBK149244] to `COc1cccc2cc(C(=O)NCc3cccs3)oc12` [CBK149799], the viability at 28.5 h, 10 µM falls from 97.6% to 67.9%.

Going from `CC(C)(C)c1nc(-c2ccccc2)c2ccccn12` [CBK149256] to `O=C(NCc1cccc2ccccc12)c1ccccc1-n1cccc1` [CBK149585], the viability at 28.5 h, 10 µM falls from 101% to 99.8%.

Going from `COc1ccc2[nH]cc(CC(=O)Nc3nc4c(OC)cccc4s3)c2c1` [CBK149279] to `COc1cccc2cc(C(=O)Nc3ccc4[nH]ccc4c3)oc12` [CBK149819], the viability at 28.5 h, 10 µM falls from 97.8% to 91.5%.

Going from `O=C(CC1CC1)NCc1ccc(-c2csnn2)cc1` [CBK149287] to `O=C(NCc1ccc(-c2csnn2)cc1)c1ccco1` [CBK149289], the viability at 28.5 h, 10 µM falls from 92.8% to 89%.

Going from `O=C(/C=C/c1ccc2c(c1)OCO2)NCc1ccc(-c2csnn2)cc1` [CBK149297] to `O=C(NCc1ccc(-c2csnn2)cc1)c1c(F)cccc1F` [CBK149310], the viability at 28.5 h, 10 µM falls from 88.1% to 86%.

Going from `O=C(NCc1ccc(-c2csnn2)cc1)c1ccc(Oc2ccccc2)cc1` [CBK149300] to `O=C(NCc1ccc(-c2csnn2)cc1)c1cccnc1` [CBK149309], the viability at 28.5 h, 10 µM falls from 108% to 87%.

First: O=C1CC(C(=O)NCc2ccc(-c3csnn3)cc2)c2ccccc21 (centres unmarked) [CBK149301]
Second: COc1ccccc1OCC(=O)NCc1ccc(-c2csnn2)cc1 [CBK149303]
The viability at 28.5 h, 10 µM of the first is lower: 93.1% for the first, 99.5% for the second.

Going from `O=C(COc1ccc(F)cc1)NCc1ccc(-c2csnn2)cc1` [CBK149315] to `COc1ccc(C2(C(=O)NCc3ccc(OC(F)(F)F)cc3)CC2)cc1` [CBK149823], the viability at 28.5 h, 10 µM rises from 98.3% to 117%.

First: COc1cc(C(=O)N2CCC3(CC2)NC(=O)c2cc(Br)ccc2O3)ccc1C [CBK149464]
Second: COc1cc(C(=O)N2CCC3(CC2)CC(=O)c2cc(Br)ccc2O3)ccc1C [CBK149465]
The viability at 28.5 h, 10 µM of the first is lower: 92.3% for the first, 110% for the second.

Compared with `CS(=O)(=O)c1ccc(-n2cc(CN3CCC(Sc4ccccc4)CC3)nn2)cc1` [CBK149468], `CC(C)(C)OC(=O)N1CCC(OCc2cn(-c3ccc(S(C)(=O)=O)cc3)nn2)CC1` [CBK149478] is lower in viability at 28.5 h, 10 µM: 101% for the first, 98.1% for the second.

Compared with `CC(C)(C)OC(=O)N1CCC(OCc2cn(-c3ccc(-n4cncn4)cc3)nn2)CC1` [CBK149477], `CS(=O)(=O)c1ccc(-c2cccc(COC3CCN(C(=O)Cc4c[nH]cn4)CC3)c2)cc1` [CBK149515] is higher in viability at 28.5 h, 10 µM: 87.1% for the first, 90.9% for the second.

Compared with `CC(=O)Nc1ccc(-c2cccc(COC3CCN(C(=O)Cc4cc(F)cc(F)c4F)CC3)c2)cc1` [CBK149489], `CS(=O)(=O)c1ccc(-c2cccc(COC3CCN(C(=O)Cc4ccc(Cl)cc4)CC3)c2)cc1` [CBK149504] is higher in viability at 28.5 h, 10 µM: 89.2% for the first, 110% for the second.

Compared with `CN1CCN(CCCNC(=O)C2(c3ccccc3)CCCC2)CC1` [CBK149521], `O=C(NCCN1CCOCC1)C1(c2ccccc2)CCCC1` [CBK149538] is lower in viability at 28.5 h, 10 µM: 106% for the first, 95.2% for the second.

Going from `O=C(NCC1COc2ccccc2O1)C1(c2ccccc2)CCCC1` (centres unmarked) [CBK149524] to `O=C(NCc1ccccc1)C1(c2ccccc2)CCCC1` [CBK149540], the viability at 28.5 h, 10 µM rises from 93.8% to 111%.

Going from `CSCCCNC(=O)C1(c2ccccc2)CCCC1` [CBK149526] to `CCOC(=O)CCNC(=O)C1(c2ccccc2)CCCC1` [CBK149543], the viability at 28.5 h, 10 µM falls from 109% to 88.2%.

Going from `O=C(NCc1ccc(Cl)c(Cl)c1)C1(c2ccccc2)CCCC1` [CBK149528] to `O=C(NCc1ccc2c(c1)OCO2)C1(c2ccccc2)CCCC1` [CBK149530], the viability at 28.5 h, 10 µM falls from 92.8% to 89.8%.

First: Cc1cnc(CNC(=O)C2(c3ccccc3)CCCC2)cn1 [CBK149531]
Second: CC(O)CNC(=O)C1(c2ccccc2)CCCC1 (centres unmarked) [CBK149542]
The viability at 28.5 h, 10 µM of the first is higher: 101% for the first, 96% for the second.

First: O=C(NCc1cccc2ccccc12)C1(c2ccccc2)CCCC1 [CBK149534]
Second: O=C(NCCc1ccc(O)cc1)C1(c2ccccc2)CCCC1 [CBK149535]
The viability at 28.5 h, 10 µM of the first is higher: 96.6% for the first, 84.9% for the second.

First: Cc1cc(Cl)ccc1CNC(=O)c1ccccc1Nc1cccc(C(F)(F)F)c1 [CBK149544]
Second: NS(=O)(=O)c1ccc(CNC(=O)c2ccccc2Nc2cccc(C(F)(F)F)c2)cc1 [CBK149579]
The viability at 28.5 h, 10 µM of the first is higher: 97.3% for the first, 94.4% for the second.

Compared with `CSCCCNC(=O)c1ccccc1Nc1cccc(C(F)(F)F)c1` [CBK149551], `O=C(Nc1ccc2[nH]ccc2c1)c1ccccc1Nc1cccc(C(F)(F)F)c1` [CBK149583] is higher in viability at 28.5 h, 10 µM: 71.3% for the first, 105% for the second.

First: O=C(NCc1cccs1)c1ccccc1-n1cccc1 [CBK149584]
Second: O=C(NCc1cccc(C(F)(F)F)c1)c1ccccc1-n1cccc1 [CBK149598]
The viability at 28.5 h, 10 µM of the first is lower: 92% for the first, 100% for the second.

Compared with `CS(=O)(=O)c1ccc(CNC(=O)c2ccccc2-n2cccc2)cc1` [CBK149612], `COc1cccc2cc(C(=O)NCc3cccc4ccccc34)oc12` [CBK149800] is lower in viability at 28.5 h, 10 µM: 94.2% for the first, 78.6% for the second.

Going from `Cc1cc(Cl)ccc1CNC(=O)/C=C/c1ccc(C(C)C)cc1` [CBK149615] to `CC(C)c1ccc(/C=C/C(=O)NCc2ccc(C#N)cc2)cc1` [CBK149642], the viability at 28.5 h, 10 µM rises from 85.2% to 91%.

Going from `CC(C)c1ccc(/C=C/C(=O)NCC2COc3ccccc3O2)cc1` (centres unmarked) [CBK149619] to `COc1cccc2cc(C(=O)NCC3COc4ccccc4O3)oc12` (centres unmarked) [CBK149791], the viability at 28.5 h, 10 µM falls from 120% to 109%.

First: CC(C)c1ccc(/C=C/C(=O)NCCN2CCOCC2)cc1 [CBK149631]
Second: CC(C)c1ccc(/C=C/C(=O)NCCC(N)=O)cc1 [CBK149646]
The viability at 28.5 h, 10 µM of the first is higher: 92.6% for the first, 81.9% for the second.

First: CC(C)c1ccc(/C=C/C(=O)N[C@H]2CC[C@H](O)CC2)cc1 [CBK149644]
Second: COc1cccc2cc(C(=O)NC3CC3)oc12 [CBK149813]
The viability at 28.5 h, 10 µM of the first is higher: 106% for the first, 97.8% for the second.

Going from `CC(C)S(=O)(=O)N1CCC(n2c(=O)[nH]c3ccccc32)CC1` [CBK149693] to `CC(=O)Nc1ccc(S(=O)(=O)N2CCC(n3c(=O)[nH]c4ccccc43)CC2)cc1` [CBK149696], the viability at 28.5 h, 10 µM falls from 101% to 92.3%.

Going from `CCc1c(C)nc2ccccc2c1SCCC(=O)N(C)C` [CBK149718T] to `CCOC(=O)CCNC(=O)c1cc2cccc(OC)c2o1` [CBK149816], the viability at 28.5 h, 10 µM falls from 99.9% to 88.1%.

First: CC1CCN(Cc2ccc(-c3nnn(CC(=O)NCc4ccc(C(F)(F)F)nc4)n3)cc2)CC1 [CBK149721T]
Second: CC1CCN(Cc2ccc(-c3nnn(CC(=O)NCc4ccc(C(F)(F)F)cn4)n3)cc2)CC1 [CBK149722T]
The viability at 28.5 h, 10 µM of the first is higher: 112% for the first, 104% for the second.

Compared with `CNc1ccc2cccc(OCCO)c2n1` [CBK149727], `O=c1ccc2cccc(OCCO)c2o1` [CBK149730] is higher in viability at 28.5 h, 10 µM: 95.6% for the first, 105% for the second.

`CN(C)C(=O)c1ccc(-c2ccc3c(c2)COC(C2CCN(C(=O)Cc4ccc(C#N)cc4)CC2)O3)cc1` (centres unmarked) [CBK149760] and `CN(C)C(=O)c1ccc(-c2ccc3c(c2)COC(C2CCN(C(=O)CC(C)(C)c4ccccc4)CC2)O3)cc1` (centres unmarked) [CBK149765] are the same in viability at 28.5 h, 10 µM: 107% for the first, 107% for the second.

Going from `COc1cccc2cc(C(=O)NCCCSC)oc12` [CBK149793] to `COc1ccc(C2(C(=O)NCCCN3CCN(C)CC3)CC2)cc1` [CBK149822], the viability at 28.5 h, 10 µM rises from 99.6% to 101%.

First: COc1ccc(OCCNC(=O)C2(c3ccc(OC)cc3)CC2)cc1 [CBK149821]
Second: COc1ccc(C2(C(=O)NCCc3ccc(O)cc3)CC2)cc1 [CBK149833]
The viability at 28.5 h, 10 µM of the first is lower: 91.8% for the first, 101% for the second.

Going from `COc1ccc(C2(C(=O)NCc3ccc(Cl)c(Cl)c3)CC2)cc1` [CBK149827] to `COc1ccc(C2(C(=O)NCc3cccs3)CC2)cc1` [CBK149831], the viability at 28.5 h, 10 µM rises from 98.7% to 106%.

Compared with `O=C(Nc1ccc(C(F)(F)F)cc1)N1CCC(n2c(=O)[nH]c3ccccc32)CC1` [CBK149847], `O=C(Nc1ccc(Cl)cc1)N1CCC(n2c(=O)[nH]c3ccccc32)CC1` [CBK149850] is higher in viability at 28.5 h, 10 µM: 83.1% for the first, 98.5% for the second.

First: COc1cc(OC)c(NC(=O)N2CCC(n3c(=O)[nH]c4ccccc43)CC2)cc1Cl [CBK149851]
Second: O=C(Nc1cccc(Cl)c1Cl)N1CCC(n2c(=O)[nH]c3ccccc32)CC1 [CBK149856]
The viability at 28.5 h, 10 µM of the first is lower: 91.4% for the first, 94.6% for the second.

Same assay, conditions: human, hela cells, % viability, bulk resorufin, single well

For `Cc1ccc(-c2oncc2C(=O)N2CCC(C#N)(c3ccccc3)CC2)cc1` [CBK149179], the viability at 28.5 h, 10 µM was 95.7%.
